Source: patent US8110654B2, “T cell epitope peptides of ovarian cancer anti-idiotypic antibody 6B11 and use thereof” (Peking University People;s Hospital, priority 2006, dated 2012)

Key:
HOC1A cells = experiment: Cytokine ELISA of supernatant of CTLs co-incubated with HOC1A cells; assay type: cell-based; settings: CTL:HOC1A 40:1, 48 hours, double-antibody-sandwich ELISA
Experimental: 6B11-CTLs, VH CDR3-CTLs and VL CDR3-CTLs were mixed with target HOC1A cells in the ratio of 40:1 respectively and co-incubated at 37° C. under 5% CO2 for 48 hours. The supernatant was harvested, and the contents of IL-2, IFN-γ and IL-4 determined by double-antibody-sandwich ELISA. […] VH CDR3 peptide- and VL CDR3 peptide-specific CTLs could also secrete high levels of IL-2 and IFN-γ while the secretion of IL-4 was in a low level, which was in a similar trend as that of the immune response induced by anti-idiotype antibody 6B11. This indicated from a different perspective that VH CDR3 peptide and VL CDR3 peptide were involved in the induction of T cell immune response derived from anti-idiotype antibody 6B11 (FIG. 13).

K562 cells = experiment: 51Cr release assay, specific CTLs against K562 cells; assay type: cell-based; settings: non-specific killing
CD4 T cells = experiment: BrdU cell proliferation assay after magnetic bead sorting of CD4 T cells; assay type: cell-based, human; settings: reacting cells sorted for CD4 T cells by magnetic beads
Experimental: All the CDR peptides of anti-idiotype antibody 6B11 (6 peptides) were synthesized artificially. The peptides were screened for Th epitope peptides by cell proliferation assay. Anti-idiotype antibody 6B11-CTLs stimulated for one period were used as reacting cells. DCs loaded with anti-idiotype antibodies and peptides respectively were used as stimulating cells. The reacting cells and the stimulating cells (in the ratio of 10:1) were co-incubated at 37° C. under 5% CO2 for 120 hours and then subject to BrdU ELISA cell proliferation assay. Each well contained 100 μl AIM-V culture medium and 1×10^5 anti-idiotype antibody 6B11-CTLs. Within the last 2 hours during stimulation, 10 μl BrdU labeling solution was added into each well and the fluid in the wells was removed. The cells were dried at 60° C. for 1 hour. 200 μl of FixDenat solution was added into each well. The reaction continued for 30 minutes at 37° C. for fixing DNA in the lymphocytes. Finally, 100 μl BrdU monoclonal antibody was added into each well for 90 minutes. The absorption value at 450 nm was read by an automatic microplate reader after substrate chromogenic reaction for detecting the proliferation of the cells. The group of DCs without loading and the group of phytohaemagglutinin (PHA) were used as negative and positive control respectively. […] Other peptides could not stimulate the proliferation of the reacting cells.
For further analyzing the proliferation of the cells, stimulating cells were blocked by anti-human MHC class II antibodies, for evaluating the effect of Th epitope peptides. Firstly, the optimal application concentration of MHC class II antibodies was determined by experiments to be 1:20 dilution (FIG. 3). […] Other peptides could not trigger cell proliferation, no matter whether MHC class II antibodies were applied or not (FIG. 4). […] The reacting cells were subject to magnetic bead sorting of CD4 T cells.

[1] = tested on: anti-idiotype antibody 6B11-CTLs (reacting cells); experiment: BrdU ELISA cell proliferation assay, 6B11-CTLs stimulated by loaded DCs; assay type: cell-based, human; settings: for proliferation after blocking by MHC class II antibodies: anti-human MHC class II antibodies 1:20 dilution; for proliferation of reacting cells 6B11-CTLs: stimulating DCs loaded with peptide 30 μg/ml or 6B11 40 μg/ml, 120 hours, BrdU, A450
Experimental: Peripheral blood was drawn from HLA-A2 healthy human subjects. After EDTA anti-coagulation treatment, peripheral blood monocytes were isolated using Ficoll lymphocyte isolation 1×10^7 monocytes/well and AIM-V culture medium (containing 5% human AB serum) was added to 1 ml. The cells were incubated at 37° C. under 5% CO2 for 2 hours. Non-adherent cells were drawn and removed as lymphocytes and stored in liquid nitrogen for further use. The adherent cells were monocytes.
The monocytes isolated from said 6-well plates were added with 2 ml AIM-V culture medium (containing 5% human AB serum)/well. Recombinant human granulocyte-macrophage colony-stimulating factor (rh GM-CSF) and recombinant human interleukin-4 (rh IL-4) were added simultaneously both to a final concentration of 1000 U/ml, for induced incubation. On Day 4, 1 ml AIM-V culture medium (containing 5% human AB serum) was supplemented, and rh GM-CSF and rh IL-4 of the same concentration as mentioned above were also supplemented. On Day 6, 1 ml AIM-V culture medium (containing 5% human AB serum) was supplemented again. At the same time, recombinant human tumor necrosis factor-α (rh TNF-α), recombinant human α-interferon (rh IFN-α) and recombinant human interleukin-6 (rh IL-6) were added, all to a final concentration of 1000 U/ml, and prostaglandin E2 (PGE2) was added to a final concentration of 1 μg/ml. Co-incubation lasted 24 hours for inducing mature DCs.
On Day 4 during incubation of DCs, the culture medium, rh GM-CSF and rh IL-4 were supplemented. At the same time, anti-idiotype antibody 6B11 was added to a final concentration of 40 μg/ml for loading. The loaded cells were stored as stimulating cells for further use.
Mature DCs induced were harvested, washed and adjusted to a concentration of 1×10^6 cells/ml. Six CDR peptides (SEQ ID NOs: 1-6, see Table 1, artificially synthesized) in a final concentration of 30 μg/ml respectively, or each peptide of 30 μg/ml together with keyhole limpet hemocyanin (KLH) of 5 μg/ml were added for loading. The loaded cells were stored as stimulating cells for further use.
The freeze-stored autologous lymphocytes were stimulated by DCs loaded with anti-idiotype antibody 6B11 (anti-Id DCs), to obtain CTLs specific to anti-idiotype antibody 6B11 (6B11-CTLs). One period consists of 7 days. On Day 3 of every period, 10 U/ml recombinant human interleukin-2 (rh IL-2) was supplemented. Finally, anti-idiotype antibody 6B11-CTLs were obtained after a one- or three-period stimulation.
All the CDR peptides of anti-idiotype antibody 6B11 (6 peptides) were synthesized artificially. The peptides were screened for Th epitope peptides by cell proliferation assay. Anti-idiotype antibody 6B11-CTLs stimulated for one period were used as reacting cells. DCs loaded with anti-idiotype antibodies and peptides respectively were used as stimulating cells. The reacting cells and the stimulating cells (in the ratio of 10:1) were co-incubated at 37° C. under 5% CO2 for 120 hours and then subject to BrdU ELISA cell proliferation assay. Each well contained 100 μl AIM-V culture medium and 1×10^5 anti-idiotype antibody 6B11-CTLs. Within the last 2 hours during stimulation, 10 μl BrdU labeling solution was added into each well and the fluid in the wells was removed. The cells were dried at 60° C. for 1 hour. 200 μl of FixDenat solution was added into each well. The reaction continued for 30 minutes at 37° C. for fixing DNA in the lymphocytes. Finally, 100 μl BrdU monoclonal antibody was added into each well for 90 minutes. The absorption value at 450 nm was read by an automatic microplate reader after substrate chromogenic reaction for detecting the proliferation of the cells. The group of DCs without loading and the group of phytohaemagglutinin (PHA) were used as negative and positive control respectively. […] Other peptides could not stimulate the proliferation of the reacting cells. […]

| Sequence | IFN-γ secretion by CTLs (HOC1A cells) | IL-2 secretion by CTLs (HOC1A cells) | IL-4 secretion by CTLs (HOC1A cells) | killing of K562 cells by specific CTLs (K562 cells) | proliferation of sorted CD4 T cells (CD4 T cells) | proliferation after blocking by MHC class II antibodies [1] | proliferation of reacting cells 6B11-CTLs [1] |
| --- | --- | --- | --- | --- | --- | --- | --- |
| IALITTKIAWYFDV (VH CDR3 region peptide) [VH CDR3 peptide] | high levels | high levels | low level | could kill | could trigger the proliferation | could be blocked mostly | could stimulate the proliferation |
| SQSTHFPYT (VL CDR3 region peptide) | high levels | high levels | low level | could not kill | could not trigger the proliferation | could not be blocked | could stimulate the proliferation |
